Experimental data from PubChem BioAssay (NCI).
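Growth conditions: 96-well plates. Treatment: test compound, 48 hours, 5 concentrations. Analysis: linear interpolation between bracketing concentrations; unreached endpoints set to highest concentration. GI50 = concentration required for 50% inhibition of growth. TGI: total growth inhibition.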

Experiments:
Test in all cases: inhibition of tumour cell growth, NCI panel, 48 h
HCT-15 colon = test system: HCT-15 colon
HCT-116 colon = test system: HCT-116 colon
SN12C renal = test system: SN12C renal
SK-MEL-2 melanoma = test system: SK-MEL-2 melanoma
HL-60(TB) leukemia = test system: HL-60(TB) leukemia
SW-620 colon = test system: SW-620 colon
OVCAR-3 ovarian = test system: OVCAR-3 ovarian
SNB-75 CNS = test system: SNB-75 CNS
MDA-MB-435 = test system: MDA-MB-435

C[N+](C)([O-])Cc1cccc(NC(=O)c2ccc(C(=O)Nc3cccc(C[N+](C)(C)[O-])c3)cc2)c1
TGI (HCT-15 colon): > 100 µM
TGI (HCT-116 colon): > 100 µM
TGI (SN12C renal): > 100 µM
TGI (SK-MEL-2 melanoma): > 100 µM
TGI (HL-60(TB) leukemia): > 100 µM
TGI (SW-620 colon): > 100 µM
TGI (OVCAR-3 ovarian): > 100 µM

CC(C)CCC[C@@H](C)[C@H]1CC[C@H]2[C@@H]3CC=C4CC(OCCCCN(O)CCCSC5OC(CO)C(O)C(O)C5O)CC[C@]4(C)[C@H]3CC[C@]12C (stereo partly specified)
TGI (HCT-15 colon): > 100 µM
TGI (SNB-75 CNS): > 100 µM
TGI (HCT-116 colon): > 100 µM
TGI (SN12C renal): > 100 µM
TGI (SK-MEL-2 melanoma): 92.1 µM
TGI (HL-60(TB) leukemia): > 100 µM
TGI (SW-620 colon): 49.4 µM

CCC1OC(=O)C(C)C(OC2CC(C)(O)C(O)C(C)O2)C(C)C(O)C(C)(O)CC(C)C(=O)C(C)C(O)C1C (stereo unspecified)
TGI (HCT-15 colon): > 300 µM
TGI (SNB-75 CNS): > 300 µM
TGI (HCT-116 colon): > 300 µM
TGI (SN12C renal): > 300 µM
TGI (SK-MEL-2 melanoma): > 300 µM
TGI (HL-60(TB) leukemia): > 300 µM
TGI (SW-620 colon): > 300 µM
TGI (OVCAR-3 ovarian): > 300 µM

CC(C)(C)OC(=O)N(CCCN)CCCCN(CCCN)C(=O)OC(C)(C)C
TGI (HCT-15 colon): > 100 µM
TGI (SNB-75 CNS): > 100 µM
TGI (HCT-116 colon): > 100 µM
TGI (SK-MEL-2 melanoma): > 100 µM
TGI (HL-60(TB) leukemia): > 100 µM
TGI (SW-620 colon): > 100 µM
TGI (MDA-MB-435): > 100 µM
TGI (OVCAR-3 ovarian): > 100 µM

Cc1ccc(-c2c(C#N)c(O)n(NS(=O)(=O)c3ccccc3)c(=O)c2C#N)cc1
TGI (HCT-15 colon): > 100 µM
TGI (SNB-75 CNS): > 100 µM
TGI (HCT-116 colon): > 100 µM
TGI (SN12C renal): > 100 µM
TGI (SK-MEL-2 melanoma): > 100 µM
TGI (HL-60(TB) leukemia): > 100 µM
TGI (SW-620 colon): > 100 µM
TGI (MDA-MB-435): > 100 µM

COc1cc2c(oc(=O)c3c4oc([Si](C)(C)C)cc4cc(OC)c23)c2cccc(O)c12
TGI (HCT-15 colon): > 100 µM
TGI (SNB-75 CNS): > 100 µM
TGI (HCT-116 colon): > 100 µM
TGI (SN12C renal): > 100 µM
TGI (SK-MEL-2 melanoma): > 100 µM
TGI (HL-60(TB) leukemia): > 100 µM
TGI (SW-620 colon): > 100 µM
TGI (OVCAR-3 ovarian): > 100 µM

Cc1cccc2ns[s+]c12
TGI (HCT-15 colon): 39.3 µM
TGI (SNB-75 CNS): > 100 µM
TGI (HCT-116 colon): 37.7 µM
TGI (SN12C renal): > 100 µM
TGI (HL-60(TB) leukemia): > 100 µM
TGI (SW-620 colon): 32.7 µM
TGI (OVCAR-3 ovarian): > 100 µM

O=C(N/N=C/c1cc(-c2ccccc2Cl)c(-c2ccccc2Cl)o1)c1ccncc1
TGI (SNB-75 CNS): > 100 µM
TGI (HCT-116 colon): > 100 µM
TGI (SN12C renal): > 100 µM
TGI (SK-MEL-2 melanoma): > 100 µM
TGI (HL-60(TB) leukemia): > 100 µM
TGI (SW-620 colon): > 100 µM
TGI (OVCAR-3 ovarian): > 100 µM

OB1OCc2ccccc21
TGI (HCT-15 colon): > 100 µM
TGI (HCT-116 colon): > 100 µM
TGI (SN12C renal): > 100 µM
TGI (SK-MEL-2 melanoma): > 100 µM
TGI (HL-60(TB) leukemia): > 100 µM
TGI (SW-620 colon): > 100 µM
TGI (MDA-MB-435): > 100 µM
TGI (OVCAR-3 ovarian): > 100 µM

COc1ccccc1C1C(Cl)C(=O)N1NC(=O)Cc1ccccc1 (stereo unspecified)
TGI (HCT-15 colon): > 100 µM
TGI (SNB-75 CNS): > 100 µM
TGI (HCT-116 colon): > 100 µM
TGI (SN12C renal): > 100 µM
TGI (SK-MEL-2 melanoma): > 100 µM
TGI (HL-60(TB) leukemia): > 100 µM
TGI (SW-620 colon): > 100 µM
TGI (OVCAR-3 ovarian): > 100 µM

COc1nc(NC2OCC(OC(C)=O)C(OC(C)=O)C2OC(C)=O)c(N=C(C)C(C)=O)c(=O)n1C (stereo unspecified)
TGI (HCT-15 colon): > 100 µM
TGI (SNB-75 CNS): > 100 µM
TGI (HCT-116 colon): > 100 µM
TGI (SN12C renal): > 100 µM
TGI (SK-MEL-2 melanoma): > 100 µM
TGI (HL-60(TB) leukemia): > 100 µM
TGI (SW-620 colon): > 100 µM

CN1C(=N\S(=O)(=O)c2ccc(Cl)cc2)/C(=N/N=P(c2ccccc2)(c2ccccc2)c2ccccc2)c2ccccc21
TGI (HCT-15 colon): > 100 µM
TGI (SNB-75 CNS): > 100 µM
TGI (HCT-116 colon): > 100 µM
TGI (SN12C renal): > 100 µM
TGI (SK-MEL-2 melanoma): > 100 µM
TGI (SW-620 colon): > 100 µM
TGI (OVCAR-3 ovarian): > 100 µM

O=C(CSCC(=O)N/N=C\c1cc(Br)cc(Br)c1O)N/N=C\c1cc(Br)cc(Br)c1O
TGI (HCT-15 colon): > 100 µM
TGI (SNB-75 CNS): > 100 µM
TGI (HCT-116 colon): > 100 µM
TGI (SN12C renal): > 100 µM
TGI (SK-MEL-2 melanoma): 42.7 µM
TGI (SW-620 colon): > 100 µM
TGI (MDA-MB-435): > 100 µM
TGI (OVCAR-3 ovarian): 93.8 µM

C[N+](C)(C)CC(=O)N/N=C(\C(=O)Nc1ccc(Cl)cc1)C1C(=O)N(c2ccccc2)N=C1N (stereo unspecified)
TGI (HCT-15 colon): > 100 µM
TGI (SNB-75 CNS): > 100 µM
TGI (HCT-116 colon): > 100 µM
TGI (SN12C renal): > 100 µM
TGI (SK-MEL-2 melanoma): > 100 µM
TGI (HL-60(TB) leukemia): > 100 µM
TGI (SW-620 colon): > 100 µM
TGI (OVCAR-3 ovarian): > 100 µM

O=C(Cl)c1cc([N+](=O)[O-])cc([N+](=O)[O-])c1
TGI (HCT-15 colon): > 100 µM
TGI (SNB-75 CNS): > 100 µM
TGI (HCT-116 colon): > 100 µM
TGI (SK-MEL-2 melanoma): > 100 µM
TGI (HL-60(TB) leukemia): > 100 µM
TGI (SW-620 colon): > 100 µM

O=C(CCc1nnc2s/c(=C\c3ccc(Cl)cc3Cl)c(=O)n12)Nc1cc(Cl)c(Cl)cc1Cl
GI50 (HCT-15 colon): > 100 µM
TGI (HCT-15 colon): > 100 µM
TGI (SNB-75 CNS): > 100 µM
GI50 (HCT-116 colon): > 100 µM
TGI (HCT-116 colon): > 100 µM
GI50 (SN12C renal): > 100 µM
TGI (SN12C renal): > 100 µM
GI50 (SK-MEL-2 melanoma): > 100 µM
TGI (SK-MEL-2 melanoma): > 100 µM
TGI (HL-60(TB) leukemia): > 100 µM
GI50 (SW-620 colon): > 100 µM
TGI (SW-620 colon): > 100 µM
GI50 (OVCAR-3 ovarian): > 100 µM
TGI (OVCAR-3 ovarian): > 100 µM

Nc1nc(NC(=O)C2=NS(=O)(=O)c3cc(S(N)(=O)=O)c(Cl)cc3N2)n[nH]1
TGI (HCT-15 colon): > 100 µM
TGI (SNB-75 CNS): > 100 µM
TGI (HCT-116 colon): > 100 µM
TGI (SN12C renal): > 100 µM
TGI (SW-620 colon): > 100 µM
TGI (OVCAR-3 ovarian): > 100 µM

O=C(C(Cl)=C(Nc1ccccc1)Nc1ccccc1)C(Cl)Cl
TGI (HCT-15 colon): 34.1 µM
TGI (HCT-116 colon): 60.2 µM
TGI (SN12C renal): 79.7 µM
TGI (HL-60(TB) leukemia): 51.9 µM
TGI (SW-620 colon): 57 µM
TGI (MDA-MB-435): 39.8 µM
TGI (OVCAR-3 ovarian): 79.3 µM

CC(C)(C)C(=O)Cc1cc2c(cc1C(=O)O)S(=O)(=O)NC(C(C)(C)C)=C2
TGI (SNB-75 CNS): > 100 µM
TGI (HCT-116 colon): > 100 µM
TGI (SN12C renal): > 100 µM
TGI (SK-MEL-2 melanoma): > 100 µM
TGI (HL-60(TB) leukemia): > 100 µM
TGI (SW-620 colon): > 100 µM
TGI (OVCAR-3 ovarian): > 100 µM
